According to patent US11345659B2, “Pipecolic esters for inhibition of the proteasome” (THE BOARD OF REGENTS OF THE UNIVERSY OF TEXAS SYSTEM, priority 2018, dated 2022):
“Also recorded” adds a separate entry of the source.

Experiments:
[1] = tested on: Human multiple myeloma RPMI 8226 cells; assay: Proliferation of RPMI 8226 cells, live cell count by Trypan Blue exclusion; assay type: cell-based; settings: RPMI 8226, 0.2 μM, 24 hours, read-out: cell proliferation, % of control
Protocol: Human multiple myeloma RPMI 8226 cells were purchased from American Type Culture Collection (ATCC; Manassas, Va.) and cultured according to ATCC specifications. […] The content of live cells was determined by excluding the Trypan Blue-stained cells. The cells were counted with TC20 Automated Cell Counter (Bio-Rad Laboratories, Hercules, Calif.) and EC50 was calculated with Origin Pro 2017 (OriginLab Corporation, Northampton, Mass.). When indicated, the cells were harvested, washed twice in PBS, resuspended in dilution buffer and stored in −80° C. To prepare crude lysates the thawed preparations were vortexed with glass beads and centrifuged for 5 min 5,000×g (4° C.). The supernate was centrifuged for 20 min 14,000×g. The resulting supernate was used as “crude lysate.” SDS-PAGE was carried in 12% acrylamide, Tris-glycine gels from Invitrogen. Chameleon Duo (Li-Cor) and Rainbow RPN800E (GE Healthcare) molecular weight standards were separated on each gel alongside lysates. The proteins were transferred to nitrocellulose membrane in a semi-dry system. The membranes were probed with specific primary antibodies from Life Technologies (S6, PS6) and Li-Cor (COX IV), and then with secondary antibodies from Li-Cor. In each experiment visualization of S6, PS6 and COX IV was performed on the same membrane with Odyssey Infrared Imaging System (Li-Cor).
The effects of compound 3 observed in vitro prompted its influence on the proliferation of cultured cancer cells to be tested, namely the multiple myeloma RPMI 8226 line. […] Such relatively low EC50, as compared to in vitro determined IC50 values for peptidase activities (2-3 μM; FIG. 3A and FIG. 3B) should come to no surprise. […] The in vitro readout of single peptidase activities is a useful and convenient measure of the catalytic prowess of proteasome. However, especially in the case of allosteric regulators, it may not fully reflect the important structural and functional effects.
Referring to FIG. […] The data are averages (±SD) of three-to-five independent experiments. […]

[2] = target: T1, FKBP12 (Homo sapiens, UniProt P62942); assay: Suppression of rapamycin inhibition of S6 phosphorylation by competing for FKBP12; assay type: cell-based; settings: RPMI 8226, 24 hours; FK506 10 μM, compound 3 and B1 0.2 μM, with rapamycin
T1 construct: endogenous in cells; host or cells: RPMI 8226 (ATCC)
T1 sequence (P62942 whole entry): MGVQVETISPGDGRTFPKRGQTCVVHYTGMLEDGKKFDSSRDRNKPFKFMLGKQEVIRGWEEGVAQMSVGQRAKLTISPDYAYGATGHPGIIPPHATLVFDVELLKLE
Protocol: (§1) Human multiple myeloma RPMI 8226 cells were purchased from American Type Culture Collection (ATCC; Manassas, Va.) and cultured according to ATCC specifications. […] The content of live cells was determined by excluding the Trypan Blue-stained cells. The cells were counted with TC20 Automated Cell Counter (Bio-Rad Laboratories, Hercules, Calif.) and EC50 was calculated with Origin Pro 2017 (OriginLab Corporation, Northampton, Mass.). When indicated, the cells were harvested, washed twice in PBS, resuspended in dilution buffer and stored in −80° C. To prepare crude lysates the thawed preparations were vortexed with glass beads and centrifuged for 5 min 5,000×g (4° C.). The supernate was centrifuged for 20 min 14,000×g. The resulting supernate was used as “crude lysate.” SDS-PAGE was carried in 12% acrylamide, Tris-glycine gels from Invitrogen. Chameleon Duo (Li-Cor) and Rainbow RPN800E (GE Healthcare) molecular weight standards were separated on each gel alongside lysates. The proteins were transferred to nitrocellulose membrane in a semi-dry system. The membranes were probed with specific primary antibodies from Life Technologies (S6, PS6) and Li-Cor (COX IV), and then with secondary antibodies from Li-Cor. In each experiment visualization of S6, PS6 and COX IV was performed on the same membrane with Odyssey Infrared Imaging System (Li-Cor). […]

[3] = target: T2, mTOR (Homo sapiens, UniProt P42345+P62942); assay: Western blot of S6 phosphorylation in RPMI 8226 cells; assay type: cell-based; settings: RPMI 8226, 24 hours; rapamycin 2 nM, compound 3 and B1 0.2 μM
T2 construct: endogenous in cells; host or cells: RPMI 8226 (ATCC)
Protocol: as §1

[4] = target: T3, 26 S proteasome (Homo sapiens, UniProt P25787+P25789); assay: 26 S proteasome challenged with mixture of three substrates (surrogate proteinase assay); assay type: biochemical; settings: mixture of ChT-L, T-L and Casp-L substrates, 33.3 μM each; read-out: IC50, 26 S proteasome with substrates for all three peptidases
T3 construct: purified from erythrocytes; purchased Enzo Life Sciences, Inc. (Farmingdale, N.Y.); host or cells: human erythrocytes
Protocol: (§2) Human housekeeping 20 S and 26 S and complexes purified from erythrocytes were purchased from Enzo Life Sciences, Inc. (Farmingdale, N.Y.). The 1 mg/ml stock 20 S proteasome was diluted to 0.2 mg/ml working solution in 50 mM Tris/HCl, pH 8 containing 20% glycerol (dilution buffer). For the 26 S proteasome stock, the dilution buffer was supplemented with 2 mM ATP, 1 mM MgCl2, and 1 mM DTT (dithiothreitol). The ChT-L peptidase activity was measured as arbitrary intensity units of fluorescence emitted by 7-amino-4-methylcoumarin (AMC) released from the canonical model peptide substrate succinyl-LeuLeuValTyr-methylcoumarin (SucLLVY-MCA; Bachem Bioscience Inc., Philadelphia, Pa.), used at concentration of 100 μM. Free AMC (Sigma-Aldrich, St. Louis, Mo.) was used as the standard. The Rpt5 C-terminal peptide was synthesized (standard solid-phase peptide chemistry) and purified to at least 98% purity by GenScript (Piscataway, N.J.). The Rpt5 peptide and the peptide substrate were dissolved in dimethylsulfoxide (DMSO) and such stock solutions were stored at −20° C. The total concentration of DMSO in final reaction mixtures never exceeded 3% (vol/vol).
The reaction was carried out in 96-well plates, in 100 μL of reaction mixture, for 1 hour at 37° C. In the case of 20 S proteasome, the reaction mixture consisted of 45 mM Tris/HCl, pH 8, 100 mM KCl with premixed 10 μM Rpt5 peptide and 100 μM Suc-LLVY-MCA, to which 200 ng (nearly […]) of proteasome and desired concentration of tested compounds in 1 μL of DMSO were added. […] The reaction rates were calculated from a linear segment of kinetic curves constructed from measurements in 1-minutes intervals (Fluoroskan Ascent plate reader; Thermo Fisher Scientific Inc., Waltham, Mass.). Reaction rates were calculated using a linear fit executed by Slope Analyzer and Enzyme Kinetics applications launched within Origin Pro 2017 (OriginLab). […]

[5] = target: T4, 20 S human housekeeping proteasome (Homo sapiens, UniProt P25787+P25789); assay: ChT-L peptidase activity of 20 S proteasome activated with Rpt5 peptide; assay type: biochemical; settings: ChT-L, Suc-LLVY-AMC substrate, 20 S activated with Rpt5 peptide; read-out: IC50
T4 construct: purified from erythrocytes; purchased Enzo Life Sciences, Inc. (Farmingdale, N.Y.); host or cells: human erythrocytes
Protocol: as §2
The reaction was carried out in 96-well plates, in 100 μL of reaction mixture, for 1 hour at 37° C. In the case of 20 S proteasome, the reaction mixture consisted of 45 mM Tris/HCl, pH 8, 100 mM KCl with premixed 10 μM Rpt5 peptide and 100 μM Suc-LLVY-MCA, to which 200 ng (nearly […]) of proteasome and desired concentration of tested compounds in 1 μL of DMSO were added. To test the activity of 26 S proteasome under conditions challenging coordination of the three pairs of peptidase active centers, a mixture of three canonical substrates specific for the ChT-L (SucLLVY-MCA), trypsin-like (T-L; BocLRR-MCA) and caspase-like (Casp-L; Z-LLE-MCA) was used with each of the substrates at 33.3 μM (100 μM of the total substrate concentration). The reaction mixture in this case consisted of 50 mM Tris/HCl, pH 8, 20 mM NaCl, premixed with the substrates and 2 mM ATP, to which 200 ng (nearly 0.1 nmol) of the 26 S working solution and desired concentration of tested compounds in 0.5 μL of DMSO were added. The reaction rates were calculated from a linear segment of kinetic curves constructed from measurements in 1-minutes intervals (Fluoroskan Ascent plate reader; Thermo Fisher Scientific Inc., Waltham, Mass.). Reaction rates were calculated using a linear fit executed by Slope Analyzer and Enzyme Kinetics applications launched within Origin Pro 2017 (OriginLab). Specific activity of the control 20 S proteasome activated with the Rpt5 peptide was in the range of 1.4 to 2.3 nanomoles of AMC product released by 1 mg of 20 S per second (1.95±0.24; n=18). Specific activity of the control 26 S proteasome challenged with three substrates reached on average 0.28±0.06 nanomoles of AMC product released by 1 mg of the enzyme per second (n=6). For comparison, degradation of the canonical Suc-LLVY-MCA substrate by the control 26 S proteasome preceded with a rate in the range of 0.6-0.8 nanomoles of AMC released per mg of the enzyme per second. The data are presented as mean±SD or as a representative set from at least 3 independent experiments.
The compounds were evaluated using the 20 S human housekeeping proteasome. It was activated with the Rpt5 derived 10-residue peptide that contains the C-terminal HbYX (hydrophobic-Tyr-any AA) motif activating the proteasome in trans and to some extend mimic the activation by the 19 S regulatory particle (Osmulski and Gaczynska (2013) Molecular pharmacology 84: 104-113; Smith et al. (2006) J. Struct. Biol. 156: 72-83; Smith et al. (2007) Mol. Cell 27: 731-744). Proteolytic activity was monitored over time using a fluorogenic peptide substrate specific for the chymotrypsin-like active center (ChT-L, Suc-LLVY-AMC) in the presence of a concentration range of the inhibitors. […]

[6] = target: T5, native human 20 S core proteasome (Homo sapiens, UniProt P25787+P25789); settings: literature; cited from earlier work
T5 construct: purified from erythrocytes; purchased Enzo Life Sciences, Inc. (Farmingdale, N.Y.); host or cells: human erythrocytes

| suppression of rapamycin inhibition of S6 phosphorylation (FKBP12 binding) [2] | IC50 [4] | IC50 [5] | Compound | activity at 0.2 µM [1] | activity of mTOR (phosphorylation of S6) [3] | contribution of closed forms in 20 S particles population [6] |
| --- | --- | --- | --- | --- | --- | --- |
| did not mimic the actions of FK506 | 4.6 µM | 5.8 µM | COc1cc(CCCOC(=O)[C@@H]2CCCCN2C(=O)C(=O)C2CCCCC2)cc(OC)c1OC (racemic) [Compound B1] | 60 to 65% | neither B1 nor compound 3 affected the activity of mTOR; also recorded: did not inhibit the S6 phosphorylation |  |
|  |  |  | CCOC(=O)[C@]1(c2ccccc2)N=C(c2ccc(OC)cc2)N(Cc2ccccc2)[C@@H]1c1ccc(NCc2ccccc2)cc1 [TCH-165] |  |  | induced a strong decrease in contribution of the closed forms |
